Source: publication PMC6163091 (Chemical biology & drug design, 2018)
Read-outs that look alike come from different tables or passages of the source. Each block holds one compound with its values, some of them ahead of it.

Key:
[1] = molecular target: guanosine/adenosine/cytidine nucleoside hydrolase (GACNH) (Trichomonas vaginalis, UniProt A2DN71); test: 1H NMR-based activity assay of GACNH; assay type: biochemical; settings: for inhibition at 250 µM: read-out: % inhibition at 250 μM against GACNH
[2] = molecular target: T1, adenosine/guanosine nucleoside hydrolase (AGNH) (Trichomonas vaginalis, UniProt A2EYV3); test: 1H NMR activity assay of AGNH; assay type: biochemical; settings: for inhibition at 250 µM: read-out: % inhibition at 250 μM against AGNH
T1 sequence (A2EYV3 1-304): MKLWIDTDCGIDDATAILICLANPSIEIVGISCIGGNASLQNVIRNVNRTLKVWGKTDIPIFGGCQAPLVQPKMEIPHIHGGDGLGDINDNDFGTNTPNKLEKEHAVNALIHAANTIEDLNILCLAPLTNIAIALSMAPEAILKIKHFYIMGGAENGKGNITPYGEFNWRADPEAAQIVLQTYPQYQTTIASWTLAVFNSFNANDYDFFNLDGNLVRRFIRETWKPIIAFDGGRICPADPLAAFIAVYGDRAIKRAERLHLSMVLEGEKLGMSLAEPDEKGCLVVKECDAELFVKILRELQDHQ

[3] = system: uridine nucleoside hydrolase (UNH); test: 19F NMR activity assay of UNH; assay type: biochemical, Trichomonas vaginalis; settings: 250 μM compound; NM = not measurable (percent inhibition < 10%)
[4] = system: uridine nucleoside hydrolase (UNH); settings: NMR screen of NIH Clinical Collection; cited from earlier work
[5] = IC50 (μM) with Triton, GACNH, in the presence of 0.01% Triton X-100
[6] = IC50 against GACNH, ribavirin analogs, Table 2
[7] = carboxamidine in place of carboxamide

inhibition at 250 µM [1]: 70% | inhibition at 250 µM [2]: < 10% | % inhibition at 250 μM against UNH [3]: 51%
Structure (SMILES): NC(=O)c1ncn([C@@H]2O[C@H](CO)[C@@H](O)[C@H]2O)c1N [Acadesine]

Structure (SMILES): NC(=O)c1ncn([C@@H]2O[C@H](CO)[C@@H](O)[C@H]2O)n1 [Ribavirin]
IC50 [1, 5]: 9 ± 3.3 µM | IC50 [1, 6]: 8.6 ± 4.4 µM | GACNH inhibition in screen ([1]; screen of NIH Clinical Collection, 50 μM compound, 100 μM adenosine, 40 min): significant inhibition | inhibition at 250 µM [2]: 83% | % inhibition at 250 μM against UNH [3]: 58%

Structure (SMILES): O=C1c2c(O)cc(O)cc2O[C@H](c2ccc(O)c(O)c2)[C@H]1O (racemic) [(±)-Taxifolin]
IC50 ([1]; read-out: IC50 (μM) with Triton, GACNH, in the presence of 0.01% Triton X-100): 41.6 ± 20.4 µM

IC50 [1, 5]: 22.6 ± 7.6 µM
Structure (SMILES): O=c1c(O[C@@H]2O[C@H](CO)[C@H](O)[C@H](O)[C@H]2O)c(-c2ccc(O)c(O)c2)oc2cc(O)cc(O)c12 [Hyperoside]

Structure (SMILES): COc1ccnc(C[S+]([O-])c2nc3ccc(OC(F)F)cc3[nH]2)c1OC (centres unmarked) [pantoprazole]
inhibition of UNH (earlier screen) [4]: potent inhibitors

IC50 [1, 6]: 1.1 ± 0.6 µM | enhancement of potency against GACNH relative to ribavirin [1, 7]: about 10 fold | IC50 [2]: 0.12 ± 0.03 µM | enhancement of potency against AGNH relative to ribavirin [2, 7]: more than 100 fold | selectivity toward AGNH over GACNH ([2]; from IC50 values): 10 fold | % inhibition at 250 μM against UNH [3]: 55%
Structure (SMILES): N=C(N)c1ncn([C@@H]2O[C@H](CO)[C@@H](O)[C@H]2O)n1 [Viramidine]

inhibition at 250 µM [1]: < 10% | inhibition at 250 µM [2]: < 10%
Structure (SMILES): NC(=O)c1ncn([C@@H]2O[C@H](CO)[C@@H](O)[C@H]2O)c1O [Mizoribine]
% inhibition at 250 μM against UNH [3]: NM (Not measurable (percent inhibition < 10%))

Structure (SMILES): OC[C@H]1O[C@@H](n2cnc3c(NC4CCCC4)nc(Cl)nc32)[C@H](O)[C@@H]1O [CCPA, 2-chloro-N(6)-cyclopentyladenosine]
IC50 [1, 5]: 14 ± 5.8 µM

Structure (SMILES): CCc1oc2ccccc2c1C(=O)c1cc(Br)c(O)c(Br)c1 [Benzbromarone]
IC50 [1, 5]: 134 ± 32.7 µM

Structure (SMILES): COCCCOc1ccnc(C[S+]([O-])c2nc3ccccc3[nH]2)c1C (centres unmarked) [rabeprazole]
inhibition of UNH (earlier screen) [4]: potent inhibitors

Structure (SMILES): COc1ccc(-c2oc3c(CC=C(C)C)c(O[C@@H]4O[C@H](CO)[C@@H](O)[C@H](O)[C@H]4O)cc(O)c3c(=O)c2O[C@@H]2O[C@@H](C)[C@H](O)[C@@H](O)[C@H]2O)cc1 [Icariin]
IC50 [1, 5]: 5 ± 1.7 µM

IC50 [1, 5]: 2.2 ± 0.6 µM
Structure (SMILES): O=c1c(O[C@@H]2O[C@H](CO)[C@@H](O)[C@H](O)[C@H]2O)c(-c2ccc(O)c(O)c2)oc2cc(O)cc(O)c12 [Isoquercitrin]

Structure (SMILES): COc1ccc2[nH]c([S+]([O-])Cc3ncc(C)c(OC)c3C)nc2c1 (centres unmarked) [omeprazole]
inhibition of UNH (earlier screen) [4]: potent inhibitors
